Assays:
[1] = test system: WiDr; assay: Antiproliferative SRB assay (NCI protocol), WiDr; type: cell-based, human; details: for Selectivity index (SI) on tumor cells: CC50 splenocytes / GI50 WiDr; for GI50: WiDr (colon), 48 h drug exposure, SRB, ± SD
Description: (§1) In vitro antiproliferative activity was evaluated using the protocol of the National Cancer Institute (NCI) after 48 h of drug exposure using the sulforhodamine B (SRB) assay.
(§2) The following human solid tumor cell lines were used in this study: HBL-100 (breast), HeLa (cervix), SW1573 (non-small cell lung), T-47D (breast), A549 (lung), and WiDr (colon). These cell lines were a kind gift from Prof. G. J. Peters (VU Medical Center, Amsterdam, The Netherlands). Cells were maintained in 25 cm^2 culture flasks in RPMI 1640 supplemented with 5% heat-inactivated fetal calf serum and 2 mM L-glutamine in a 37 °C, 5% CO2, 95% humidified air incubator. Exponentially growing cells were trypsinized and resuspended in antibiotic containing medium (100 units penicillin G and 0.1 mg of streptomycin per mL). Single cell suspensions displaying > 97% viability by trypan blue dye exclusion test were subsequently counted. After counting, dilutions were made to give the appropriate cell densities for inoculation onto 96-well microtiter plates. Cells were inoculated in a volume of 100 μL per well at densities of 5000 (WiDr and T-47D), and 2500 (A549, HeLa, SW1573 and HBL-100) cells per well, based on their doubling times.
(§3) Chemosensitivity tests were performed using the SRB assay of the NCI with slight modifications. Briefly, pure compounds were initially dissolved in DMSO at 400 times the desired final maximum test concentration. Control cells were exposed to an equivalent concentration of DMSO (0.25% v/v, negative control). Each agent was tested in triplicates at different dilutions in the range 1–100 μM. Drug treatment started on day 1 after plating. Drug incubation periods were 48 h, after which cells were precipitated with 25 μL of ice-cold 50% (w/v) trichloroacetic acid and fixed for 60 min at 4 °C. Then, the SRB assay was performed. The optical density (OD) of each well was measured at 530 nm, using BioTek’s PowerWave XS Absorbance Microplate Reader. Values were corrected for background OD from wells containing only culture medium. The percentage growth (PG) was calculated with respect to untreated control cells (C) at each level of drug concentrations based on the difference in OD at the start time (T0) and at the end of drug exposure (T), according to NCI formulas. Therefore, if T is greater than or equal to T0, the calculation is 100 × ((T − T0)/(C − T0)). If T is lower than T0, denoting cell death, the calculation is 100 × ((T − T0)/(T0)). The effect is defined as the growth percentage, where 50% growth inhibition (GI50) represents the concentration at which PG is +50. Based on these calculations, a PG value of 0 corresponds to the number of cells present at the beginning of drug exposure, while negative PG values denote net cell death.

[2] = Cytotoxicity on primary cell culture (flow cytometry, PI); type: cell-based; details: Balb/c, mouse, primary splenocytes (spleen cells), ± SD, read-out: Cytotoxic activity on spleen cells (CC50)
Description: The cytotoxicity of the natural sesquiterpenes (1–3) and derivatives (4–19) was determined on primary cell cultures (splenocytes obtained from Balb/c mouse). […] Derivatives of tessaric acid have shown an improvement in CC50 values in comparison with the natural sesquiterpene 1. […] All the derivatives synthesized from alcohol ilicic (compounds 10–19) were more toxic to mammalian cells than the natural compound (3).
The cytotoxicity of the compounds was evaluated on splenocytes obtained from Balb/c mouse (1.5 × 10^5) and incubated with different drug dilutions (5–200 μg/mL) as previously described. Cell death was determined by flow cytometry using a BD FACSaria II cytometer. Cells incubated only with drug vehicle were used as 100% viability control, and death percentage was calculated according to the following formula: Death%=1−(%PI^−cells)drug−treated/(%PI^−cells)100% viability control × 100
The concentration capable of causing 50% cell death (CC50) was determined using a non-linear regression approach.

[3] = test system: Trypanosoma cruzi epimastigotes (RA strain); assay: In vitro anti-Trypanosoma cruzi assay ((3H) thymidine uptake); type: cell-based; details: for Selectivity Index on T. cruzi epimastigotes: CC50 splenocytes / IC50 epimastigotes; for IC50: Trypanosoma cruzi, epimastigotes (RA strain), ± SD; for Trypanocidal activity (in words): T. cruzi
Description: Trypanosoma cruzi epimastigotes (RA strain, from discrete typing unit (DTU) VI) were grown in a biphasic medium. Cultures were maintained by weekly passages at 28 °C [18].
The growth inhibition of T. cruzi epimastigotes was evaluated by a (^3H) thymidine uptake assay as previously described. Natural sesquiterpenes and derivatives were evaluated at concentrations ranging from 1.5 to 50 µg/mL. Benznidazole (Active Pharmaceutical Ingredient) was used as positive control (Elea). The percentage of inhibition was calculated as 100 = {((cpm of treated parasites)/(cpm of untreated parasites)) × 100}.
Figure 5 Effect of the natural sesquiterpene tessaric acid (1), ilicic acid (2), and ilicic alcohol (3) and their derivatives on T. cruzi. Epimastigotes (RA strain) were cultured in the presence of the compounds (50–1.5 µg/mL). Determinations were performed by triplicate. The results are expressed as the mean ± SD. (A) Effect of tessaric acid and derivatives on epimastigotes; (B) Effect of ilicic acid and derivatives on epimastigotes; (C) Effect of ilicic alcohol and derivatives on epimastigotes.

[4] = test system: T-47D; assay: Antiproliferative SRB assay (NCI protocol), T-47D; type: cell-based, human; details: for Selectivity index (SI) on tumor cells: CC50 splenocytes / GI50 T-47D; for GI50: T-47D (breast), 48 h drug exposure, SRB, ± SD
Description: as §1, §2, §3

[5] = test system: HeLa; assay: Antiproliferative SRB assay (NCI protocol), HeLa; type: cell-based, human; details: for Selectivity index (SI) on tumor cells: CC50 splenocytes / GI50 HeLa; for GI50: HeLa (cervix), 48 h drug exposure, SRB, ± SD
Description: as §1, §2, §3

[6] = test system: HBL-100; assay: Antiproliferative SRB assay (NCI protocol), HBL-100; type: cell-based, human; details: for GI50: HBL-100 (breast), 48 h drug exposure, SRB, ± SD; for Selectivity index (SI) on tumor cells: CC50 splenocytes / GI50 HBL-100
Description: as §1, §2, §3

[7] = test system: A549; assay: Antiproliferative SRB assay (NCI protocol), A549; type: cell-based, human; details: for GI50: A549 (lung), 48 h drug exposure, SRB, ± SD; for Selectivity index (SI) on tumor cells: CC50 splenocytes / GI50 A549
Description: as §1, §2, §3

[8] = test system: SW1573; assay: Antiproliferative SRB assay (NCI protocol), SW1573; type: cell-based, human; details: for GI50: SW1573 (non-small cell lung), 48 h drug exposure, SRB, ± SD; for Selectivity index (SI) on tumor cells: CC50 splenocytes / GI50 SW1573
Description: as §1, §2, §3

[9] = test system: HeLa, T-47D, WiDr, A549, HBL-100, and SW1573 cell lines; assay: Antiproliferative SRB assay, whole panel of human solid tumor cell lines; type: cell-based; details: for GI50: Homo sapiens, minimal to maximal GI50 across the cell lines tested, 48 h, SRB, read-out: GI50 values, range over all cell lines tested; for Antiproliferative activity (in words): solid tumor cell lines evaluated
Description: as §1, §2, §3

Row | Compound | IC50 [3] | GI50 [9] | Selectivity index (SI) on tumor cells [1] | GI50 ([1]; Homo sapiens) | CC50 [2] | Selectivity Index on T. cruzi epimastigotes [3] | Selectivity index (SI) on tumor cells [4] | GI50 ([4]; Homo sapiens, T47D) | Selectivity index (SI) on tumor cells [5] | GI50 ([5]; Homo sapiens) | GI50 ([6]; Homo sapiens) | GI50 ([7]; Homo sapiens) | GI50 ([8]; Homo sapiens) | Selectivity index (SI) on tumor cells [8] | further results
1 | C#CCCCc1cn(CC(=C)[C@@H]2CC[C@@]3(C)CCC[C@@](C)(O)C3C2)nn1 (stereo partly shown) [Compound 17] | 14.8 µM | – | 1.3 | 31 µM | 40.4 µM | 2.7 | 1.4 | 29 µM | 1.3 | 31 µM | – | – | – | – | –
2 | C=C(CO)[C@@H]1CC[C@@]2(C)CCC[C@@](C)(O)[C@@H]2C1 [Compound 3, ilicic alcohol] | 156 µM | – | – | > 100 µM | – | – | – | > 100 µM | – | > 100 µM | > 100 µM | – | > 100 µM | – | Trypanocidal activity (in words) [3]: nor trypanocidal activity; Antiproliferative activity (in words) [9]: did not show antiproliferative activity
3 | C=C(Cn1cc(CCCCCCCCCC)nn1)[C@@H]1CC[C@@]2(C)CCC[C@@](C)(O)C2C1 (stereo partly shown) [Compound 16] | 8.8 µM | 12 to 17 µM | 6.8 | 12 µM | 82.4 µM | 9.4 | 4.8 | 17 µM | 6.3 | 13 µM | – | – | – | – | –
4 | N.N.[Cl][Pt][Cl] [Cisplatin, reference compound] | – | – | – | – | – | – | – | – | – | – | – | – | – | – | GI50 [1]: 23 µM; GI50 [6]: 1.9 µM; GI50 [7]: 4.9 µM; GI50 [8]: 2.7 µM; GI50 [4]: 17 µM; GI50 [5]: 1.8 µM
5 | C=C(C(=O)O)[C@@H]1CC[C@@]2(C)CCC[C@@](C)(O)[C@@H]2C1 [Compound 2, ilicic acid] | > 198 µM | – | – | > 100 µM | – | – | – | > 100 µM | – | > 100 µM | > 100 µM | – | > 100 µM | – | Trypanocidal activity (in words) [3]: nor trypanocidal activity; Antiproliferative activity (in words) [9]: did not show antiproliferative activity

Further lines, with some results ahead:

Row | IC50 [3] | GI50 [9] | Compound | Selectivity index (SI) on tumor cells [1] | GI50 ([1]; Homo sapiens) | CC50 [2] | Selectivity Index on T. cruzi epimastigotes [3] | Selectivity index (SI) on tumor cells [4] | GI50 ([4]; Homo sapiens, T47D) | Selectivity index (SI) on tumor cells [5] | GI50 ([5]; Homo sapiens) | GI50 ([6]; Homo sapiens) | GI50 ([7]; Homo sapiens) | GI50 ([8]; Homo sapiens) | Selectivity index (SI) on tumor cells [8] | further results
6 | 9.3 µM | – | C=C(C(=O)N(Cc1ccccc1)C(C)(C)C(=O)NC(C)(C)C)[C@@H]1CCC2=CC(=O)C[C@H](C)[C@@]2(C)C1 [Compound 5] | – | > 100 µM | 44.7 µM | 4.8 | – | > 100 µM | – | > 100 µM | > 100 µM | > 100 µM | > 100 µM | – | –
7 | 45.1 µM | 17 to 64 µM | C=C(C(=O)N(Cc1ccccc1)C(C)(C)C(=O)NC1CCCCC1)[C@@H]1CCC2=CC(=O)C[C@H](C)[C@@]2(C)C1 [Compound 9] | 2.0 | 39 µM | 76.5 µM | 1.7 | 3.6 | 21 µM | 3.2 | 24 µM | 47 µM | 28 µM | 30 µM | 2.6 | Selectivity index (SI) on tumor cells [6]: 1.6; Selectivity index (SI) on tumor cells [7]: 2.7
8 | 22.4 µM | 5.3 to 14 µM | C=C(C(=O)N(Cc1ccccc1)C(C)(C)C(=O)NC1CCCCC1)C1CCC2(C)CCCC(C)(O)C2C1 (stereo not shown) [Compound 15] | 1.7 | 18 µM | 21.5 µM | 1.0 | 1.7 | 19 µM | – | 14 µM | 19 µM | 13 µM | 17 µM | 1.5 | Selectivity index (SI) on tumor cells [6]: 1.5
9 | 59.6 µM | 5.3 to 14 µM | C=C(C(=O)N(Cc1ccccc1)C(C)(C)C(=O)NCc1ccccc1)C1CCC2(C)CCCC(C)(O)C2C1 (stereo not shown) [Compound 13] | 2.5 | 11 µM | 27.4 µM | 0.5 | 2.5 | 11 µM | 3.4 | 8 µM | 13 µM | 5.3 µM | 11 µM | 2.5 | Selectivity index (SI) on tumor cells [6]: 2.1; Selectivity index (SI) on tumor cells [7]: 5.2
10 | 16.3 µM | – | C=C(C(=O)N(c1ccccc1)C(C)(C)C(=O)NC(C)(C)C)[C@@H]1CCC2=CC(=O)C[C@H](C)[C@@]2(C)C1 [Compound 4] | 0.2 | 98 µM | 17.3 µM | 1.1 | 0.2 | 95 µM | 0.3 | 68 µM | > 100 µM | 68 µM | 57 µM | 0.3 | Selectivity index (SI) on tumor cells [7]: 0.25
11 | 48.2 µM | – | C=C(Cn1cc(-c2ccccc2)nn1)[C@@H]1CC[C@@]2(C)CCC[C@@](C)(O)C2C1 (stereo partly shown) [Compound 19] | 4.6 | 41 µM | 187 µM | 3.9 | 3.1 | 61 µM | 2.4 | 79 µM | – | – | – | – | –
12 | 30.2 µM | – | C=C(Cn1cc(Cc2ccccc2)nn1)[C@@H]1CC[C@@]2(C)CCC[C@@](C)(O)C2C1 (stereo partly shown) [Compound 18] | 1.6 | 39 µM | 62.2 µM | 2.1 | 1.4 | 44 µM | – | > 100 µM | – | – | – | – | –

— PMC9143450, “Oxonitrogenated Derivatives of Eremophilans and Eudesmans: Antiproliferative and Anti-Trypanosoma cruzi Activity” (Molecules, 2022)
